This is an account of results in patent publication US20230393148A1, “KITS, REAGENTS AND METHODS FOR THE ASSESSMENT OF LIVER DISEASES” (The General Hospital Corporation, priority 2020, published 2023).

In one assay the test system is CXCL12. The assay is described as follows: Plasma CXCL12 by Olink proximity extension assay, randomized trial of tesamorelin vs placebo. The format is in vivo, human. The note with it: HIV-associated NAFLD, tesamorelin 2 mg daily, change over 12 months, plasma NPX, mean ± SD, n = 20. The procedure: (§1) A randomized, double blind trial in which individuals with HIV-associated NAFLD were assigned to receive the growth hormone-releasing hormone (GHRH) analogue tesamorelin 2 mg daily or identical placebo for 12 months (7). […] Changes in circulating levels of proteins corresponding to top leading-edge genes in pathways responsive to tesamorelin between treatment groups were investigated, and the relationships of these proteins to histologic, radiographic, and transcriptomic indices was assessed to identify plasmatic markers of NAFLD/NASH and elucidate potential mechanisms of tesamorelin response.
(§2) 61 men and women 18-70 years old who had documented HIV infection and liver steatosis as defined by hepatic fat fraction ≥5% on ^1H-magnetic resonance spectroscopy (^1H-MRS) were enrolled. […]
(§3) Study procedures for the parent clinical trial have been described in detail elsewhere (7, 9). […] Serum IGF-1 was measured using standard techniques (Quest Laboratories).
(§4) For this analysis, change in targeted proteins over 12 months was assessed using an Olink® Multiplex proximity extension assay (PEA) platform. The PEA is an affinity-based assay that characterizes abundance levels of pre-determined sets of proteins. […] The resultant DNA sequence is detected and quantified using standard real-time PCR on the Fluidigm BioMark™ HD real-time PCR platform. […]

The subject of another assay is TGFB1. The assay is described as follows: Plasma TGFB1 by Olink proximity extension assay, randomized trial of tesamorelin vs placebo. The format is in vivo, human. To be noted: HIV-associated NAFLD, tesamorelin 2 mg daily, change over 12 months, plasma NPX, mean ± SD, n = 20. The procedure:
as §1, §2, §3, §4

The next assay deals with TNFRSF21. As to the kind of experiment: Plasma TNFRSF21 by Olink proximity extension assay, randomized trial of tesamorelin vs placebo. The format is in vivo, human. To be noted: HIV-associated NAFLD, tesamorelin 2 mg daily, change over 12 months, plasma NPX, mean ± SD, n = 20. As to the method:
as §1, §2, §3, §4

Another assay relates to CRTAM. As to the kind of experiment: Plasma CRTAM by Olink proximity extension assay, randomized trial of tesamorelin vs placebo. The format is in vivo, human. To be noted: HIV-associated NAFLD, tesamorelin 2 mg daily, change over 12 months, plasma NPX, mean ± SD, n = 20. The procedure:
as §1, §2, §3, §4

In the next assay the test system is NCR1. As to the kind of experiment: Plasma NCR1 by Olink proximity extension assay, randomized trial of tesamorelin vs placebo. The format is in vivo, human. The note with it: HIV-associated NAFLD, tesamorelin 2 mg daily, change over 12 months, plasma NPX, mean ± SD, n = 20. As to the method: as §1, §2, §3, §4
In another assay the test system is hallmark gene pathways. To be noted: liver biopsy, pre- to post-treatment (12 months), tesamorelin versus placebo, GSEA FDR <0.05; cited from earlier work.
The subject of another assay is CCL20. The assay is described as follows: Plasma CCL20 by Olink proximity extension assay, randomized trial of tesamorelin vs placebo. To be noted: HIV-associated NAFLD, tesamorelin 2 mg daily, change over 12 months, plasma NPX, mean ± SD, n = 20. In kind it is in vivo, human. As to the method: as §1, §2, §3, §4
The subject of another assay is CSF1. The assay is described as follows: Plasma CSF1 by Olink proximity extension assay, randomized trial of tesamorelin vs placebo. In kind it is in vivo, human. The note with it: HIV-associated NAFLD, tesamorelin 2 mg daily, change over 12 months, plasma NPX, mean ± SD, n = 20. The procedure:
as §1, §2, §3, §4

The subject of another assay is VEGFA. The assay is described as follows: Plasma VEGFA by Olink proximity extension assay, randomized trial of tesamorelin vs placebo. In kind it is in vivo, human. The note with it: HIV-associated NAFLD, tesamorelin 2 mg daily, change over 12 months, plasma NPX, mean ± SD, n = 20. As to the method:
as §1, §2, §3, §4

Another assay concerns CASP8. As to the kind of experiment: Plasma CASP8 by Olink proximity extension assay, randomized trial of tesamorelin vs placebo. In kind it is in vivo, human. The note with it: HIV-associated NAFLD, tesamorelin 2 mg daily, change over 12 months, plasma NPX, mean ± SD, n = 20. The procedure: as §1, §2, §3, §4

* marks the point of attachment. Hexenoyl(3E) = CC/C=C/CC(=O)*

For “trans-3-hexenoyl-GHRH(1-44)-NH2 ({Hexenoyl(3E)}-YADAIFTNSYRKVLGQLSARKLLQDIMSRQQGESNQERGARARL-NH2) [Tesamorelin]”, in the assay on CXCL12, the “Log2-Fold change plasma CXCL12” value is recorded as −0.03 ± 0.18. For the same substance, the “Log2-Fold change plasma TGFB1” value in the assay with TGFB1 and with TGFB1 (listed as tesamorelin) was −0.35±0.56 in each case. Besides, in the assay with TNFRSF21, the “Log2-Fold change plasma TNFRSF21” value is recorded as −0.13 ± 0.22. Besides, in the assay with CRTAM, the “Log2-Fold change plasma CRTAM” value is on record as −0.35 ± 0.73. Besides, in the assay on NCR1, the “Log2-Fold change plasma NCR1” value is on record as −0.20 ± 0.52. Also, the “13 hepatic gene sets involved in inflammation, tissue repair, and cell division, regulation with treatment” value with hallmark gene pathways is “downregulated”. Moreover, the “Hepatic gene set pertaining to oxidative phosphorylation, regulation with treatment” value in the assay with hallmark gene pathways is listed as “upregulated”. The “Log2-Fold change plasma CCL20” value with CCL20 is −0.28 ± 0.88; in the assay with CCL20 (listed as tesamorelin), −0.28±0.88. Besides, the “Log2-Fold change plasma CSF1” value with CSF1 and in the assay on CSF1 (listed as tesamorelin) was −0.17±0.21 in each case. Besides, the “Log2-Fold change plasma VEGFA” value in the assay on VEGFA and with VEGFA (listed as tesamorelin) was −0.20±0.35 each time. For the same substance, the “Log2-Fold change plasma CASP8” value with CASP8 was −0.37 ± 0.72.
